Measured values as given in patent US20100310542A1, “Pharmaceutical Compositions for treating wouds and related methods” (HEALOR LTD., priority 2007, published 2010).

Tests used:
[1] = test system: primary murine keratinocytes; assay: cell proliferation by [3H]thymidine incorporation; type: cell-based; details: insulin 0.1 units/ml
Protocol: Cell proliferation: Cell proliferation was measured by [^3H]thymidine incorporation in 6 well plates. Cells were pulsed with [^3H]thymidine (3 μCi/ml) for 1 h. After incubation, cells were washed five times with PBS and 5% TCA was added into each well for 1 h. The solution was removed and cells were solubilized in 1 M NaOH. The labeled thymidine incorporated into cells was counted in a ^3H-window of TRI-CARB™ liquid scintillation counter.
Next, proliferation of cultured cells in the wound was evaluated utilizing thymidine incorporation (FIG. 6C). Cell proliferation was measured by [^3H]thymidine incorporation in 6 well plates. Cells were placed in […] and pulsed with [^3H]thymidine (3 μCi/ml) for 1 h. After incubation, cells were washed five times with PBS and 5% TCA was added to each well for 1 h. This solution was then removed and cells were solubilized in 1 M NaOH. The labeled thymidine incorporated into the cells was counted in the ^3H-window of a liquid scintillation counter. As shown in FIGS. 6A-C the addition of KCl changed insulin induced wound closure and cell proliferation.
Cultures of 5 day old, confluent keratinocytes were subjected to in vitro scratch assays and wound healing was examined. Following wound formation, Insulin (10^−6 M; 0.1 units/ml) was added to cell cultures in the various formulations (Formulation C and D) as described above. […]

[2] = test system: keratinocytes from the tails of adult mice; assay: cell proliferation, Rapid Cell Proliferation Kit, pre-incubation in medium B; type: cell-based; details: pre-incubation of cells in medium B for 24 hours vs treatment parallel to medium change
Protocol: Medium A and B are both EMEM eagle's minimal essential medium from Biological Industries (Israel) containing 8% CHELEX™ treated fetal bovine serum. CHELEX™ is a strong chelator which binds free Ca^2+ and Mg^2+ ions to prevent these ions from being bioavailable to the cultured cells. […] The influence of pre-incubation of keratinocytes in medium B on the effects of Insulin and Insulin+PKCα inhibitor on cell proliferation in vitro was evaluated. Cultures of 5 day old, confluent keratinocytes from the tails of adult mice (7-10 months up to 2 years) were allowed to proliferate in vitro. After 5 days in MEM (medium A), the growth medium was changed to medium B (described above). Parallel to the medium changing or 24 hours following it, cells were treated with Insulin or with Insulin+PKCα inhibitor. The proliferation rate of the cells was measured with the commercially available Rapid Cell Proliferation Kit (Cat. No. QIA127; Calbiochem). The Experiment was carried out in hexaplicate. Results are presented as percent of untreated cells (control). […] Cultures of 5 day old, confluent keratinocytes prepared from the tails of adult mice (7-10 months up to 2 years) were subjected to proliferation assays utilizing a commercially available Rapid Cell Proliferation Kit (Cat. No. QIA127; Calbiochem). After 5 days in MEM, the growth medium was changed to medium B as described above. […]

[3] = test system: primary murine keratinocytes; assay: in vitro scratch assay, wound closure with insulin in Formulation C and D; type: cell-based; details: insulin 0.1 units/ml, 48 hours
Protocol: Murine keratinocytes were isolated and cultured as described above. After five days, confluent keratinocytes were subjected in vitro scratch assays to follow wound healing. Following wound formation Insulin (insulin 10^−6 M; 0.1 units/ml) was added to the cell cultures in the various formulations (Formulation C and D) described above. Wound closure was followed for 48 hours. This experiment was carried out in triplicate. Wound closure is presented as the percent of closure following 48 hours of treatment in FIG. 6B.
Cultures of 5 day old, confluent keratinocytes were subjected to in vitro scratch assays and wound healing was examined. Following wound formation, Insulin (10^−6 M; 0.1 units/ml) was added to cell cultures in the various formulations (Formulation C and D) as described above. Wound closure was followed for 48 hours. Experiments were carried out in triplicate. (A) Photographs of representative cell culture dishes are presented. (B) Wound closure is presented as percent of closure following 48 hours of treatment. (C) Proliferation assays were performed on cultured cells in the wound using the thymidine incorporation proliferation assay described above.

[4] = test system: full thickness skin incisions; assay: incision wound healing in mice, percent of healed wounds; type: in vivo, C57BL/6J mice; details: agent alone, all formulations (A-C); daily, 7 days; vs groups treated with formulations alone
Protocol: In vivo incision wound generation and inducement of inflammation: Full thickness (20 mm long) skin incisions were performed on the upper back of anesthetized C57BL/6J mice (6 mice per group). […] the incision, wounds were treated daily with insulin (10^−6 M; 0.1 units/ml); pseudosubstrate PKCα peptide, 1 μM (PKCα inhibitor); or Insulin+PKCα inhibitor (Myr-pseudosubstrate PKCα peptide, 1 μM and insulin 0.1 units) applied directly on the wounds in the various formulations (Formulations A-C) as described above. After 7 days, wounds were excised and the percentage of healed wounds was evaluated by examining the morphology and histology of the wounds. Results are presented as percent of healed wounds relative to the total number of wounds per group. […] Full thickness (20 mm long) skin incisions were performed on the upper back of anesthetized C57BL/6J mice (6 mice per group). […] After 7 days, wounds were excised and the percentage of healed wounds was evaluated by examining the morphology and histology of the wounds. […]

[5] = Formulation D (Tris + KCl 0.4 mg/ml)

Insulin: human recombinant insulin, identified as insulin, USP insulin or Ins USP
cell proliferation (thymidine incorporation) ([1]; Formulation C (Tris)): inhibited insulin induced wound closure and cell proliferation | cell proliferation (thymidine incorporation) [1, 5]: induced partial wound closure and cell proliferation | effect on cell proliferation (percent of untreated cells) [2]: enhances the effects | wound closure in vitro ([3]; Formulation C (Tris)): inhibited insulin induced wound closure | wound closure in vitro [3, 5]: induced partial wound closure | healing of wounds (percent of healed wounds) [4]: did not promote wound healing efficacy
